Patent US20230172940A1, “METHODS OF EXTENDING LIFESPAN BY ADMINISTERING FERROPTOSIS INHIBITORS” (COLLABORATIVE MEDICINAL DEVELOPMENT, LLC, priority 2020, published 2023)
Where two headings read alike, the source gives them in different places.

Test system: RSL3
Test: IC50 (RSL3), Table 1
Assay type: cell-based

| Structure (SMILES) | IC50 | IC50 (unit cell prints uM) |
| --- | --- | --- |
| CCCCC(=O)c1cc2c(c(-n3ccnc3)c1)NCCC2 [Compound B-006, 1-(8-imidazol-1-yl-1,2,3,4-tetrahydroquinolin-6-yl)pentan-1-one] | > 3000 nM | – |
| CCCCC(=O)c1cc2c(c(NC3CCCC3)c1)OCCC2 [Compound B-035, 1-[8-(cyclopentylamino)-3,4-dihydro-2H-1-benzopyran-6-yl]pentan-1-one] | > 3000 nM | – |
| CON(C)C(=O)c1ccc2c(c1)C=CC(C)(C)N2 [Compound B-065] | > 3000 nM | – |
| CCCCC(=O)c1cc2c3c(c1)nc(C(F)(F)F)n3CCC2 [Compound B-099, 1-[2-(trifluoromethyl)-1,3-diazatricyclo[6.3.1.04,12]dodeca-2,4(12),5,7-tetraen-6-yl]pentan-1-one] | > 3000 nM | – |
| CCOC(=O)c1cc2c(c(C(=O)C(F)(F)F)c1)NC(C)(C)C=C2 [Compound B-101, Ethyl 2,2-dimethyl-8-(2,2,2-trifluoroacetyl)-1,2-dihydroquinoline-6-carboxylate] | > 3000 nM | – |
| CCCCC(=O)c1cc(F)c2c(c1)CCCN2 [Compound B-132] | > 3000 nM | – |
| CCCCC(=O)c1cc2c(c(N(S(=O)(=O)CC(C)C)S(=O)(=O)CC(C)C)c1)NCCC2 [Compound B-248, N-isobutylsulfonyl-2-methyl-N-(6-pentanoyl-1,2,3,4-tetrahydroquinolin-8-yl)propane-1-sulfonamide] | > 3000 nM | – |
| CCC/C=C/c1nc2c(c(NC3CCCC3)n1)NCCC2 [Compound B-388, N-cyclopentyl-2-[(E)-pent-1-enyl]-5,6,7,8-tetrahydropyrido [3,2-d]pyrimidin-4-amine] | 40 nM | – |
| CCCCC(OC)c1cc2c(c(Nc3ccccn3)c1)NCCC2 (stereo not drawn) [Compound B-397, 6-(1-methoxypentyI)-N-(2-pyridyl)-1,2,3,4-tetrahydroquinolin-8-amine] | 70 nM | – |
| CCC/C=C/c1nc(NC2CCCC2)c2c(n1)SCC(=O)N2 [Compound B-600, 4-(cyclopentylamino)-2-[(1E)-pent-1-en-1-yl]-5H,6H,7H-pyrimido[4,5-b][1,4]thiazin-6-one] | ≥ 3000 nM | – |
| CCCCCc1nc(NC2CCCC2)c2c(n1)S(=O)(=O)CCN2 [Compound B-602, N-cyclopentyl-8,8-dioxo-2-pentyl-6,7-dihydro-5H-pyrimido[4,5-b][1,4]thiazin-4-amine] | ≥ 3000 nM | – |
| CCC/C=C/c1nc(NC2CCOC2)c2c(n1)OCC(=O)N2 (stereo not drawn) [Compound B-603, 4-[(oxolan-3-yl)amino]-2-[(1E)-pent-1-en-1-yl]-5H,6H,7H-pyrimido[4,5-b][1,4]oxazin-6-one] | > 3000 nM | – |
| CCCCC(=O)c1cc2c(c(NC3CCCC3)n1)NCCC2 [Compound B-647, 1-[8-(cyclopentylamino)-1,2,3,4-tetrahydro-1,7-naphthyridin-6-yl]pentan-1-one] | 8 nM | – |
| CCCCCc1nc(NC2CCCC2)c2c(n1)OCCN2 [Compound B-711, N-cyclopentyl-2-pentyl-5H,6H,7H-pyrimido[4,5-b][1,4]oxazin-4-amine] | 41 nM | – |
| CCCCCc1nc2c(c(NC3CCCC3)n1)NC(C)(C)CC2 [Compound B-917, N-cyclopentyl-6,6-dimethyl-2-pentyl-5H,6H,7H,8H-pyrido[3,2-d]pyrimidin-4-amine] | > 3000 nM | – |
| c1ncc(-c2ncc(NC3COC3)c(NC3CCCC3)n2)cn1 [Compound F-82, N^4-cyclopentyl-N^5-(oxetan-3-yl)-2-pyrimidin-5-yl-pyrimidine-4,5-diamine] | > 625 nM | – |
| CC(C)=Cc1nc(C)nc(NC2CCCC2)c1N [Compound F-99, N^4-cyclopentyl-2-methyl-6-(2-methylprop-1-enyl)pyrimidine-4,5-diamine] | > 625 nM | – |
| CCCCC(O)c1nc2c(c(Nc3ccccn3)n1)NCCC2 (stereo not drawn) [Compound G-63, 1-[4-(2-pyridylamino)-5,6,7,8-tetrahydropyrido[3,2-d]pyrimidin-2-yl]pentan-1-ol] | – | > 10000 nM |
| CCCCC(=O)c1nc2c(c(Nc3ccccn3)n1)NCCC2 [Compound G-65, 1-[4-(2-pyridylamino)-5,6,7,8-tetrahydropyrido[3,2-d]pyrimidin-2-yl]pentan-1-one] | – | > 10000 nM |
| CCOC(=O)c1cc(N)c2c(c1)OCCN2 [Compound H-85] | > 1000 nM | – |
| CCC(C)Nc1ccc(-c2ccc(OC)cc2)nc1NC1CCCC1 (stereo not drawn) [Compound H-86, N^2-cyclopentyl-6-(4-methoxyphenyl)-N^3-sec-butyl-pyridine-2,3-diamine] | 8 nM | – |
| CNC(=O)c1nc(-c2ccc(C)cc2)nc2c1NC(C)(C)N2C1CCCC1 [Compound K-34, 9-cyclopentyl-N,8,8-trimethyl-2-(p-tolyI)-5,7-dihydro-4H-purine-6-carboxamide] | – | > 10000 nM |

Continued by falling IC50, values first:

| IC50 | IC50 (unit cell prints uM) | Structure (SMILES) |
| --- | --- | --- |
| 7 nM | – | Cc1ccc(-c2ccc(NC(C)(C)C)c(NC3CCCC3)n2)cc1 [Compound A-98, N^3-tert-butyl-N^2-cyclopentyl-6-(p-tolyl)pyridine-2,3-diamine] |
| 7 nM | – | CCC(C)Nc1ccc(-c2ccc(C)cc2)nc1NC1CCCC1 (stereo not drawn) [Compound H-61, N^2-cyclopentyl-6-(p-tolyl)-N^3-sec-butyl-pyridine-2,3-diamine] |
| 7 nM | – | CCC(C)Nc1ccc(-c2cncnc2)nc1NC1CCCC1 (stereo not drawn) [Compound H-80, N^2-cyclopentyl-6-pyrimidin-5-yl-N^3-sec-butyl-pyridine-2,3-diamine] |
| 6 nM | – | Cc1ccc(-c2nc3c(c(NC4CCCC4)n2)NCCC3)cc1 [Compound A-32, N-cyclopentyl-2-(p-tolyl)-5,6,7,8-tetrahydropyrido[3,2-d]pyrimidin-4-amine] |
| 6 nM | – | CCCCCc1ccc(NC(C)CC)c(NC2CCCC2)n1 (stereo not drawn) [Compound H-72, N^2-cyclopentyl-6-pentyl-N^3-sec-butyl-pyridine-2,3-diamine] |
| 6 nM | – | CCC(C)Nc1ccc(-c2ccncc2)nc1NC1CCCC1 (stereo not drawn) [Compound H-76, N^2-cyclopentyl-6-(4-pyridyl)-N^3-sec-butyl-pyridine-2,3-diamine] |
| 5 nM | – | CCC(C)Nc1ccc(-c2cccnc2)nc1NC1CCCC1 (stereo not drawn) [Compound H-74, N^2-cyclopentyl-6-(3-pyridyl)-N^3-sec-butyl-pyridine-2,3-diamine] |
| 5 nM | – | Cc1ccc(-c2ccc(NC3COC3)c(NC3CCCC3)n2)cc1 [Compound H-81, N^2-cyclopentyl-N^3-(oxetan-3-yl)-6-(p-tolyl)pyridine-2,3-diamine] |
| 5 nM | – | CCC(C)Nc1ccc(-c2ccc(C)cc2)nc1NC(C)(C)C [Compound L-02, N^2-tert-butyl-6-(p-tolyl)-N^3-sec-butyl-pyridine-2,3-diamine] |
| 5 nM | – | CC(C)(C)Nc1ccc(-c2ccncc2)nc1NC1CCCC1 [Compound L-04, N^3-tert-butyl-N^2-cyclopentyl-6-(4-pyridyl)pyridine-2,3-diamine] |
| 3 nM | – | CCCCCc1nc(NC2CCCC2)c2c(n1)SCCN2 [Compound B-601, N-cyclopentyl-2-pentyl-5H,6H,7H-pyrimido[4,5-b][1,4]thiazin-4-amine] |
| 3 nM | – | COc1ccc(-c2ccc(NC3COC3)c(NC3CCCC3)n2)cc1 [Compound H-87, N^2-cyclopentyl-6-(4-methoxyphenyl)-N^3-(oxetan-3-yl)pyridine-2,3-diamine] |
| 1 nM | – | CC1(Nc2nc(-c3ccc(F)cc3)ccc2NC2CCOCC2)CCOC1 (stereo not drawn) [Compound N-53, 6-(4-fluorophenyl)-N^2-(3-methyltetrahydrofuran-3-yl)-N^3-tetrahydropyran-4-yl-pyridine-2,3-diamine] |
| 1 nM | – | CCC(C)Nc1ccc(-c2ccncc2)nc1NC(C)(C)C (stereo not drawn) [Compound P-22] |
